Assays:
[1] = target: NA of D0 isolate A/Paris/7976/2010 (223I 100%, 275H 100%) (Influenza A virus, UniProt V9TJZ0); type: biochemical, influenza A(H1N1)pdm09 virus; conditions: read-out: Ki +/− SD
H1N1pdm09 virus = conditions: human, in vivo

SMILES | Ki [1] [nM] | impact on viral shedding (H1N1pdm09 virus) | symptoms (H1N1pdm09 virus)
CCC(CC)O[C@@H]1C=C(C(=O)O)C[C@H](N)[C@H]1NC(C)=O [OC, oseltamivir carboxylate] | 0.28 | – | –
CC(=O)N[C@H]1[C@H]([C@H](O)[C@H](O)CO)OC(C(=O)O)=C[C@@H]1N=C(N)N [ZAN, zanamivir] | – | no impact | did not improve
